The record followed here is BindingDB's records for doi:10.1007/s10822-022-00478-x (Roche Innovation Center Basel, F. Hoffmann-La Roche Ltd., 2022).

The target in this assay is cAMP and cAMP-inhibited cGMP 3',5'-cyclic phosphodiesterase 10A (Homo sapiens, UniProt Q9Y233). Kind of assay: PDE10A assay. The method, boiled down:
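Scintillation proximity readout of [3H]cGMP hydrolysis (50 nM final substrate, 15 min) by 2 ng/well human PDE10A after 15 min compound preincubation at RT, pH 7.5 with MgCl2. Four-parameter logistic fit gave IC50, reported as pIC50.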

The molecule `Cn1ncc(S(C)(=O)=O)c1C(=O)Nc1ccc2cc(-c3ccccc3)nn2c1` [Roche-Dataset for PDE10A, Compound 410] gave an IC50 of 0.179 µM.
For `CCCCc1cc(NC(=O)c2c(C(=O)N3CCC3)cnn2C)[nH]n1` [Roche-Dataset for PDE10A, Compound 985] the value was 4.9 µM; for `O=C(NCCc1cccc(C(F)(F)F)c1)c1nc(C2CC2)cnc1Nc1cncnc1` [Roche-Dataset for PDE10A, Compound 491], 0.083 µM.
As for `Cn1nnc(C(=O)N2CCC2)c1C(=O)Nc1ccn2nc(-c3ccccc3)nc2c1` [Roche-Dataset for PDE10A, Compound 250], the figure is 0.182 µM; as for `C[C@@H](NC(=O)c1ccc(NC(=O)c2nc(C3CC3)ccc2Nc2cncnc2)s1)c1ccccc1` [Roche-Dataset for PDE10A, Compound 563], 0.32 µM; as for `COCc1ccc(Nc2cncnc2)c(C(=O)Nc2cccc(-c3ccn(C)n3)c2)n1` [Roche-Dataset for PDE10A, Compound 790], 0.00532 µM.
Consider `Cn1ncc(C(=O)N2CCC2)c1C(=O)Nc1cc2ccccn2n1` [Roche-Dataset for PDE10A, Compound 1147], for which the midpoint of inhibition, the IC50, lay at 0.692 µM.
On to `CC(C)(CO)NC(=O)c1ncccc1NC(=O)c1nc(C2CC2)cnc1Nc1cncnc1` [US8703768, 273], for which half-maximal inhibition (IC50) required 0.00031 µM.
The molecule `CCn1nc(NC(=O)c2c(C(=O)N3CCC3)cnn2C)cc1C1CC1` [Roche-Dataset for PDE10A, Compound 1135] showed an IC50 of 6.12 µM.
`O=C(Nc1cc(-c2ccccn2)nn1CC1CCCC1)c1nc(C2CC2)ccc1Nc1cncnc1` [US8470820, 31]: the IC50 stood at 0.00112 µM.
For the molecule `Cn1ncc(C(=O)N2CCOCC2)c1C(=O)N[C@H]1CCn2cc(-c3ccccc3Cl)nc2C1` [Roche-Dataset for PDE10A, Compound 1009], half-maximal inhibition (IC50) was put at 0.436 µM.
For `Cc1ncc(C)n2nc(CCc3nc(C)n(-c4ccccc4)n3)nc12` [Roche-Dataset for PDE10A, Compound 456] the value was 0.748 µM; for `Cc1cc(CNC(=O)c2cnn(C)c2C(=O)Nc2ccn3cc(-c4ccccc4)nc3n2)n[nH]1` [Roche-Dataset for PDE10A, Compound 99], 0.017 µM.
Molecule `O=C(NCCCN1CCCC1=O)c1nc(C2CC2)cnc1Nc1cncnc1` [Roche-Dataset for PDE10A, Compound 795] registered an IC50 of 1.11 µM.
The molecule `c1cc(COc2nc(N3CCOCC3)c3ccccc3n2)nc(N2CCCC2)c1` [4-(2-((6-(pyrrolidin-1-yl)pyridin-2-yl)methoxy)quinazolin-4-yl)morpholine] yielded an IC50 of 0.058 µM.
On to `O=C(N[C@H]1CCN(c2ccccn2)C1)c1nc(C2CC2)ccc1Nc1cncnc1` [Roche-Dataset for PDE10A, Compound 1052], for which the IC50 was 0.367 µM.
Regarding `Cc1nc(C(=O)N2CCC2)c(C(=O)Nc2ccn3nc(-c4ccccc4)nc3c2)n1C` [Roche-Dataset for PDE10A, Compound 75], the IC50 amounted to 0.02 µM.
As for `CC(C)Oc1cccc(NC(=O)c2nc(C3CC3)cnc2Nc2cncnc2)n1` [Roche-Dataset for PDE10A, Compound 917], the figure is 0.024 µM.
Molecule `Cn1ncc(C(=O)N2CCC2)c1C(=O)Nc1cc2nc(-c3ccccc3)nn2cn1` [Roche-Dataset for PDE10A, Compound 236] came in with an IC50 of 0.00261 µM.
As for `Cc1cnc(C)n2nc(CCc3nc(N4CCNC(=O)C4)nn3C)nc12` [Roche-Dataset for PDE10A, Compound 483], the figure is 0.848 µM.
In turn, `Cc1ncc(C)n2nc(CCc3ncn(-c4ccccc4)n3)nc12` [Roche-Dataset for PDE10A, Compound 400] came in with an IC50 of 0.082 µM.
For `Cn1cc(-c2ccccc2)nc1CCc1nc2ccccc2nc1N1CCCC1` [Roche-Dataset for PDE10A, Compound 98] the value was 0.00344 µM.
For `Cc1cn2nc(C#Cc3nc(N4CCCC4)nn3C)ccc2n1` [US9617271, 67] the value was 0.00921 µM; for `Cc1ccc2c(c1)c(=O)n(C)c1c(C)nc(-c3ccccc3Cl)n21` [Roche-Dataset for PDE10A, Compound 948], 0.027 µM.
For `CN(C)C(=O)c1cc(NC(=O)c2nc(C3CC3)ccc2Nc2cncnc2)[nH]n1` [Roche-Dataset for PDE10A, Compound 748] the value was 1.15 µM.
As for `Cc1ncc(C)n2nc(CCc3nc(N4CCN(C(c5ccccc5)c5ccccc5)C4=O)nn3C)nc12` [Roche-Dataset for PDE10A, Compound 1145], inhibition was half-maximal at 4.77 µM (IC50).
Regarding `CS(=O)(=O)N1CCC(NC(=O)c2nc(C3CC3)cnc2Nc2cncnc2)CC1` [Roche-Dataset for PDE10A, Compound 1072], the IC50 was 2.86 µM.
Regarding `O=C(Nc1cnc(Cl)cc1Cl)c1nc(C2CC2)ccc1Nc1cncnc1` [Roche-Dataset for PDE10A, Compound 942], it took 0.00994 µM to reach half-maximal inhibition (IC50).
In turn, `CC(C)c1nnc2c(C(=O)NCCc3nc(-c4ccccc4)cn3C)cccn12` [Roche-Dataset for PDE10A, Compound 201] had an IC50 of 0.025 µM.
For `O=C(NCCc1noc(-c2ccccc2)n1)c1nc(C2CC2)cnc1Nc1cncnc1` [Roche-Dataset for PDE10A, Compound 271] the value was 0.048 µM; for `O=C(N[C@]12C[C@H]3C[C@H](C[C@H](C3)C1)C2)c1nc(C2CC2)cnc1Nc1cncnc1` [Roche-Dataset for PDE10A, Compound 1143], 0.788 µM.
Regarding `Cn1ncc(C(=O)N2CCOCC2)c1C(=O)Nc1cn(-c2cccc(C(F)(F)F)n2)cn1` [Roche-Dataset for PDE10A, Compound 719], the IC50 stood at 8.86 µM.
For `CN(C(=O)c1cnn(C)c1C(=O)Nc1ccn2nc(N3CCOCC3)nc2c1)C1CC1` [Roche-Dataset for PDE10A, Compound 207] the value was 0.0011 µM.
Regarding `O=C(NCc1cc(F)cc(F)c1)c1nc(C2CC2)cnc1Nc1cncnc1` [Roche-Dataset for PDE10A, Compound 783], half-maximal inhibition (IC50) was put at 1.06 µM.
Molecule `O=C(Nc1cc(Cl)ncn1)c1ccc2cc(-c3ccccc3)nn2c1` [Roche-Dataset for PDE10A, Compound 419] came in with an IC50 of 0.249 µM.
As for `O=C(Nc1cc(C2CCCC2)n[nH]1)c1nc(C2CC2)ccc1Nc1cncnc1` [Roche-Dataset for PDE10A, Compound 653], the figure is 0.375 µM; as for `O=C1c2ccccc2C(=O)N1CCc1nc(-c2ccccn2)no1` [Roche-Dataset for PDE10A, Compound 490], 5.45 µM.
For the molecule `CNC(=O)c1cc(OCCO)ccc1NC(=O)c1nc(C2CC2)cnc1Nc1cncnc1` [US8703768, 216], the IC50 came out at 0.00077 µM.
As for `Cc1nn2ccc(CCc3nc(N4CCCC4)nn3C)nc2c1C` [US9617271, 53], inhibition was half-maximal at 0.017 µM (IC50).
As for `Cc1ncc(C)n2nc(/C=C/c3ncn(-c4ccccc4)n3)nc12` [Roche-Dataset for PDE10A, Compound 629], it took 0.162 µM to reach half-maximal inhibition (IC50).
In the case of `Cn1cnc(C(=O)N2CCC2)c1C(=O)Nc1ccn2nc(-c3ccccc3)nc2c1` [Roche-Dataset for PDE10A, Compound 183], inhibition was half-maximal at 0.021 µM (IC50).
For `Cc1ncn(C)c1C(=O)Nc1cc(-c2ccccn2)nn1C` [Roche-Dataset for PDE10A, Compound 772] the value was 10 µM.
As for `O=C(Nc1cc(-c2ccccn2)nn1C1CCOCC1)c1nc(C2CC2)ccc1Nc1cncnc1` [Roche-Dataset for PDE10A, Compound 24], the figure is 0.00141 µM; as for `Cn1cc(NC(=O)c2nc(C3CC3)ccc2Nc2cncnc2)c(C(=O)N2CCC2)n1` [US8703768, 30], 0.033 µM; as for `O=C(Nc1cccc(C(=O)N2CCCC2)n1)c1nc(C2CC2)cnc1Nc1cncnc1` [Roche-Dataset for PDE10A, Compound 830], 0.01 µM.
`Cn1ncc(C(=O)N2CCOCC2)c1C(=O)Nc1cn(-c2ccc3ccccc3n2)cn1` [Roche-Dataset for PDE10A, Compound 222] returned an IC50 of 0.00176 µM.
For `CC(C)c1cc(NC(=O)c2c(C(=O)N3CCC3)cnn2C)n(C2CCCC2)n1` [Roche-Dataset for PDE10A, Compound 1042], the midpoint of inhibition, the IC50, lay at 0.854 µM.
Molecule `Cc1ncc(C)n2nc(CCc3nc(N4CC5CC4C5)nn3C)nc12` [Roche-Dataset for PDE10A, Compound 524] showed an IC50 of 0.858 µM.
In turn, `Cc1ncc(C)n2nc(CCc3nc(N4CC[C@@H](C)C4)nn3C)nc12` [Roche-Dataset for PDE10A, Compound 447] yielded an IC50 of 0.028 µM.
Molecule `Cn1ncc(C(=O)N2CCC2)c1C(=O)Nc1ccn(CCC#N)n1` [Roche-Dataset for PDE10A, Compound 1114] showed an IC50 of 3.15 µM.
As for `Cc1ncc(C2CC2)c2nc(CCc3nc(N4CCCC4)nn3C)nn12` [Roche-Dataset for PDE10A, Compound 605], the figure is 0.00328 µM; as for `Cc1c(Cl)cc(C(F)(F)F)c2nc(/C=C/c3nc(Br)nn3C)nn12` [Roche-Dataset for PDE10A, Compound 764], 0.115 µM; as for `Cc1c(Cl)cc(C(F)F)c2nc(CCc3nc(N4CCCC4)nn3C)nn12` [Roche-Dataset for PDE10A, Compound 187], 0.00167 µM.
Consider `CN1C(=O)c2ccc(NC(=O)c3nc(C4CC4)ccc3Nc3cncnc3)cc2C1=O` [Roche-Dataset for PDE10A, Compound 849], for which the IC50 worked out at 0.048 µM.
In turn, `Cc1cc(Nc2cncnc2)cc(C(=O)Nc2cc(-c3ccccn3)nn2C)n1` [Roche-Dataset for PDE10A, Compound 542] yielded an IC50 of 0.092 µM.
Molecule `O=C(Nc1cc(-c2ccccn2)nn1C1CCCCC1)c1nc(C2CC2)ccc1Nc1cncnc1` had an IC50 of 0.00132 µM.
On to `Cc1ncc(C)n2nc(CCc3nc(N(C)CC4CC4)nn3C)nc12` [Roche-Dataset for PDE10A, Compound 841], for which half-maximal inhibition (IC50) required 0.117 µM.
Consider `CN(C(=O)c1c(C(=O)N2CCC2)cnn1C)c1ccn2nc(-c3ccccc3)nc2c1` [Roche-Dataset for PDE10A, Compound 1062], for which the IC50 was 1.45 µM.
Molecule `CC(C)(NC(=O)c1nc(C2CC2)cnc1Nc1cncnc1)c1nnc(-c2cccnc2)o1` [Roche-Dataset for PDE10A, Compound 1006] yielded an IC50 of 1.44 µM.
